# Assay results: ChEMBL document CHEMBL5291721, “A preclinical secondary pharmacology resource illuminates target-adverse drug reaction associations of marketed drugs” (Nat Commun, 2023)
# What was measured:
# [1] = target: Vascular endothelial growth factor receptor 2 (Homo sapiens, UniProt P35968); assay type: functional
# [2] = target: T1, Amine oxidase [flavin-containing] A (Homo sapiens, UniProt P21397); assay type: functional
# T1 sequence (P21397 whole entry): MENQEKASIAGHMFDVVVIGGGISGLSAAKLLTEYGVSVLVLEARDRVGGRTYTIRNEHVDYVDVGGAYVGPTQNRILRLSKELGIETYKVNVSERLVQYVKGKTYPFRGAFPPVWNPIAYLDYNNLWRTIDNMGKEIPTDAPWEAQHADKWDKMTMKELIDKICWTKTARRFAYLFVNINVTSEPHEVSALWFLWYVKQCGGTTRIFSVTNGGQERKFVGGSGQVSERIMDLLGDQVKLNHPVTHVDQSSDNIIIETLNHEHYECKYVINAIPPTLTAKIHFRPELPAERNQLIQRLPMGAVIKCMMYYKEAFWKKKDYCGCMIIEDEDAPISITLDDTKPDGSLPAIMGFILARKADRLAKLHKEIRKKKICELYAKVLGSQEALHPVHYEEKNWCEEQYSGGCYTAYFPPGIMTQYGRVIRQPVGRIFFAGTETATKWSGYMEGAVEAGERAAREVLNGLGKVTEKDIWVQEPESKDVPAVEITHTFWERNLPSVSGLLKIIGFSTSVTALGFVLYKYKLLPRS
# [3] = target: T2, Alpha-2A adrenergic receptor (Homo sapiens, UniProt P08913)
# T2 sequence (P08913 whole entry): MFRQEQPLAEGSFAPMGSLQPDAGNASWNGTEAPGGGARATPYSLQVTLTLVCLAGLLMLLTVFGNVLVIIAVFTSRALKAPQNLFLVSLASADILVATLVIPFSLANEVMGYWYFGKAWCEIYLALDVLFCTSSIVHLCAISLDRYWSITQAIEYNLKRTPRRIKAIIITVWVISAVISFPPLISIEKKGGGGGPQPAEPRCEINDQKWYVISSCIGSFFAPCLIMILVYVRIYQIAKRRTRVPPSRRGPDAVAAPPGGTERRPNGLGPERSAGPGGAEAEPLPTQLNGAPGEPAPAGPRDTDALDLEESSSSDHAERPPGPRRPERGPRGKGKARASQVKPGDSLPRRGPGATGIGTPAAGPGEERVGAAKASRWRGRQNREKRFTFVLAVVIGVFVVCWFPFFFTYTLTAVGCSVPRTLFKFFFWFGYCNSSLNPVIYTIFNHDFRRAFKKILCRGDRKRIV
# Acetylcholinesterase = Acetylcholinesterase (Homo sapiens, UniProt P22303); assay type: functional
# Acetylcholinesterase, sequence (P22303 whole entry): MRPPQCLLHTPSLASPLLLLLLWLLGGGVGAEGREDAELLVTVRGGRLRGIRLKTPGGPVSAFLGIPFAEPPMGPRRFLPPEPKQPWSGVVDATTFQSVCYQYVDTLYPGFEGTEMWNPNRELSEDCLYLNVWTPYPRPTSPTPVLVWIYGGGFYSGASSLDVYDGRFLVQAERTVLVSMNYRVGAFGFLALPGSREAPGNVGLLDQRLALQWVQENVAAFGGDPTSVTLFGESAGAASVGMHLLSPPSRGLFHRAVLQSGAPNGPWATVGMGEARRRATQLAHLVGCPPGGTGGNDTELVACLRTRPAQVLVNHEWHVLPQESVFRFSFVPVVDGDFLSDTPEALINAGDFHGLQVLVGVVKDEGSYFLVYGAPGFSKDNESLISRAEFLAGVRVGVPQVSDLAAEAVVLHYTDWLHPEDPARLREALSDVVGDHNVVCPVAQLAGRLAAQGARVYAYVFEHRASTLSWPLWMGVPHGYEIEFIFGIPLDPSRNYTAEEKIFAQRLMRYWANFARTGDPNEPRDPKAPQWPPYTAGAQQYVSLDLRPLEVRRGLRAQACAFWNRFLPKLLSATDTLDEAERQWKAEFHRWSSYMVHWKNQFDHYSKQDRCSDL
# Endothelin-1 receptor = target: T3, Endothelin-1 receptor (Homo sapiens, UniProt P25101)
# T3 sequence (P25101 whole entry): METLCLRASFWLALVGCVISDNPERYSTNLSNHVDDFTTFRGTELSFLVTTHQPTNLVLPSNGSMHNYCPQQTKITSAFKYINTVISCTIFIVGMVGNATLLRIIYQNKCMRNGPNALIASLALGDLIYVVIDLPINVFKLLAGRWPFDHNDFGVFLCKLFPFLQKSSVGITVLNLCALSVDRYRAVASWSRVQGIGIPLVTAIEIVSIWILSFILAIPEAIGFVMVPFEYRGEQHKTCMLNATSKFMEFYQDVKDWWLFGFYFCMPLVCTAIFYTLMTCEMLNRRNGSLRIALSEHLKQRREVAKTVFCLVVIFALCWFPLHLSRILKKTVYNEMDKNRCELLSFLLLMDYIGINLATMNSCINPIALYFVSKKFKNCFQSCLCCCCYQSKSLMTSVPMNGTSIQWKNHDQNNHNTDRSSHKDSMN
# [4] = target: T4, Alpha-1A adrenergic receptor (Homo sapiens, UniProt P35348); assay type: functional, cell-based
# T4 sequence (P35348 whole entry): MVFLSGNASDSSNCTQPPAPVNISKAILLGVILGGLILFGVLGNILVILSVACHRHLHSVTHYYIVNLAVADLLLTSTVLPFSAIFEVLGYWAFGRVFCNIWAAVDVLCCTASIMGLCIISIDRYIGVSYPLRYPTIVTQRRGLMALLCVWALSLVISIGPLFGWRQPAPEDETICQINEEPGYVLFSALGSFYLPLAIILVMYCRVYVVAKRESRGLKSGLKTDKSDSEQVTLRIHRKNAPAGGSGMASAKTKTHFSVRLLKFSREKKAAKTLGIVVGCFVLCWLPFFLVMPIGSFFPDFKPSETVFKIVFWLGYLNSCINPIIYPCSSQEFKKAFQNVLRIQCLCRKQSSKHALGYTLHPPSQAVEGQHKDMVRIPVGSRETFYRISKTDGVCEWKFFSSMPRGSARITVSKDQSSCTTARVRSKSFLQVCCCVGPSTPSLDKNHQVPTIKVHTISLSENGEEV
# [5] = target: Gamma-aminobutyric acid receptor subunit alpha-1 (Rattus norvegicus, UniProt P62813); assay type: functional
# Gamma-aminobutyric acid receptor subunit alpha-1, sequence (P62813 whole entry): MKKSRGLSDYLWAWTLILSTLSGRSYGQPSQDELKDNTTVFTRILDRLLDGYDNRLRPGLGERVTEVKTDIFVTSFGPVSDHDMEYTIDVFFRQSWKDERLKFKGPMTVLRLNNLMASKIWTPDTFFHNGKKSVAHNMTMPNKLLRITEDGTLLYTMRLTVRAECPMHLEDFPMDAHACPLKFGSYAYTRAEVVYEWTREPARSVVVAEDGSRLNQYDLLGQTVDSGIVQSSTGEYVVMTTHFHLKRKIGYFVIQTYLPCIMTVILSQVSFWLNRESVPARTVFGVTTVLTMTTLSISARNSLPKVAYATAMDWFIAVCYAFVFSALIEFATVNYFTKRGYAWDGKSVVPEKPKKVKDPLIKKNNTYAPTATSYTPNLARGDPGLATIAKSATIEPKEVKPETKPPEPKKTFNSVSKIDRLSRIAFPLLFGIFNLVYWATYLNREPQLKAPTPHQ
# [6] = target: 5-hydroxytryptamine receptor 2B (Homo sapiens, UniProt P41595); assay type: functional, cell-based
# 5-hydroxytryptamine receptor 2B, sequence (P41595 whole entry): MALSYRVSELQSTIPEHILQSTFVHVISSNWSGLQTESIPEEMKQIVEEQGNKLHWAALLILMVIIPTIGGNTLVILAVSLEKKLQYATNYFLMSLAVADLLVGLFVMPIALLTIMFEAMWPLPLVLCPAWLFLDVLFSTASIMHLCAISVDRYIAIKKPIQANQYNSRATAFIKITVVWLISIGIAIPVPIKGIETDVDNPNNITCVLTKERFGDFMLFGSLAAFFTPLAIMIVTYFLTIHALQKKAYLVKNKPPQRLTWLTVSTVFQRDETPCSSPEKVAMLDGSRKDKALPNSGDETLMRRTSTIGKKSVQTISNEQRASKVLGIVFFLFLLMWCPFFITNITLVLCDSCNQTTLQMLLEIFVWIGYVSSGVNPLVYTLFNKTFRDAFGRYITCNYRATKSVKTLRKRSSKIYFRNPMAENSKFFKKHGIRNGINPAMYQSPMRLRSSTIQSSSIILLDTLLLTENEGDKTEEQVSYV
# Histamine H1 receptor = Histamine H1 receptor (Homo sapiens, UniProt P35367)
# Histamine H1 receptor, sequence (P35367 whole entry): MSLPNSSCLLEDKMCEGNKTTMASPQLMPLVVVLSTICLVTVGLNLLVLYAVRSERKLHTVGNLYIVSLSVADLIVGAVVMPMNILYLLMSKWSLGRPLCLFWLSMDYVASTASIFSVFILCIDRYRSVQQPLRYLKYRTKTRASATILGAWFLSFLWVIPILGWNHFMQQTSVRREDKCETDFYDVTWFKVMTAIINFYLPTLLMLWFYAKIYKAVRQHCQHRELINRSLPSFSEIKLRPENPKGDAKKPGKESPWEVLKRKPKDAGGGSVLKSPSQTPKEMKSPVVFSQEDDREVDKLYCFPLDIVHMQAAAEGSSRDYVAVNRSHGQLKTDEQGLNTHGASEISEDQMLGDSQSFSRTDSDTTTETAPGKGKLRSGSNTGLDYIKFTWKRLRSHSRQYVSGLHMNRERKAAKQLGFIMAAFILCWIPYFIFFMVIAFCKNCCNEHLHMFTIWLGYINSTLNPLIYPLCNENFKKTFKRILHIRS
# Glucocorticoid receptor = target: T5, Glucocorticoid receptor (Homo sapiens, UniProt P04150)
# T5 sequence (P04150 whole entry): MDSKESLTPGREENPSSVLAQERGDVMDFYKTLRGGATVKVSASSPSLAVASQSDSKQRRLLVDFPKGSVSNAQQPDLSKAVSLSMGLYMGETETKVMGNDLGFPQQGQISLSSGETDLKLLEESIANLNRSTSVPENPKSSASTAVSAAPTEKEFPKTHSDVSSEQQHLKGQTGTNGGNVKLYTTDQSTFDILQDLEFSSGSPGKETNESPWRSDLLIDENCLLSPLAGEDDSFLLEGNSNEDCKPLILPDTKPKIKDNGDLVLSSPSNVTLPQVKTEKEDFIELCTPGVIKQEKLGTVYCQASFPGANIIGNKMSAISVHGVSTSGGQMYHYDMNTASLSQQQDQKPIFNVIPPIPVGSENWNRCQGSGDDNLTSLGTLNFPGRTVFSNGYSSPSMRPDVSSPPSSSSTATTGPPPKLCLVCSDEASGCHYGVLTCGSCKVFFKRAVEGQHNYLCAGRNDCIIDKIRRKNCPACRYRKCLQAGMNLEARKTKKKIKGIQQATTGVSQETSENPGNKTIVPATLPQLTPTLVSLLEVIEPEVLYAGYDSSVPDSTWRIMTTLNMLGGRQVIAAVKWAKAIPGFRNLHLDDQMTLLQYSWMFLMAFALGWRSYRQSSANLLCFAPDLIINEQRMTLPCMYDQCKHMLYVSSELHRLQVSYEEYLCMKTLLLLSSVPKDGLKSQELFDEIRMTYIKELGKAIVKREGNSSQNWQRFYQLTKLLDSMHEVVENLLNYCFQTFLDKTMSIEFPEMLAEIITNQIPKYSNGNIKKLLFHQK
# Note: assay procedure not described here.
# Vascular endothelial growth factor receptor 2, sequence (P35968 whole entry): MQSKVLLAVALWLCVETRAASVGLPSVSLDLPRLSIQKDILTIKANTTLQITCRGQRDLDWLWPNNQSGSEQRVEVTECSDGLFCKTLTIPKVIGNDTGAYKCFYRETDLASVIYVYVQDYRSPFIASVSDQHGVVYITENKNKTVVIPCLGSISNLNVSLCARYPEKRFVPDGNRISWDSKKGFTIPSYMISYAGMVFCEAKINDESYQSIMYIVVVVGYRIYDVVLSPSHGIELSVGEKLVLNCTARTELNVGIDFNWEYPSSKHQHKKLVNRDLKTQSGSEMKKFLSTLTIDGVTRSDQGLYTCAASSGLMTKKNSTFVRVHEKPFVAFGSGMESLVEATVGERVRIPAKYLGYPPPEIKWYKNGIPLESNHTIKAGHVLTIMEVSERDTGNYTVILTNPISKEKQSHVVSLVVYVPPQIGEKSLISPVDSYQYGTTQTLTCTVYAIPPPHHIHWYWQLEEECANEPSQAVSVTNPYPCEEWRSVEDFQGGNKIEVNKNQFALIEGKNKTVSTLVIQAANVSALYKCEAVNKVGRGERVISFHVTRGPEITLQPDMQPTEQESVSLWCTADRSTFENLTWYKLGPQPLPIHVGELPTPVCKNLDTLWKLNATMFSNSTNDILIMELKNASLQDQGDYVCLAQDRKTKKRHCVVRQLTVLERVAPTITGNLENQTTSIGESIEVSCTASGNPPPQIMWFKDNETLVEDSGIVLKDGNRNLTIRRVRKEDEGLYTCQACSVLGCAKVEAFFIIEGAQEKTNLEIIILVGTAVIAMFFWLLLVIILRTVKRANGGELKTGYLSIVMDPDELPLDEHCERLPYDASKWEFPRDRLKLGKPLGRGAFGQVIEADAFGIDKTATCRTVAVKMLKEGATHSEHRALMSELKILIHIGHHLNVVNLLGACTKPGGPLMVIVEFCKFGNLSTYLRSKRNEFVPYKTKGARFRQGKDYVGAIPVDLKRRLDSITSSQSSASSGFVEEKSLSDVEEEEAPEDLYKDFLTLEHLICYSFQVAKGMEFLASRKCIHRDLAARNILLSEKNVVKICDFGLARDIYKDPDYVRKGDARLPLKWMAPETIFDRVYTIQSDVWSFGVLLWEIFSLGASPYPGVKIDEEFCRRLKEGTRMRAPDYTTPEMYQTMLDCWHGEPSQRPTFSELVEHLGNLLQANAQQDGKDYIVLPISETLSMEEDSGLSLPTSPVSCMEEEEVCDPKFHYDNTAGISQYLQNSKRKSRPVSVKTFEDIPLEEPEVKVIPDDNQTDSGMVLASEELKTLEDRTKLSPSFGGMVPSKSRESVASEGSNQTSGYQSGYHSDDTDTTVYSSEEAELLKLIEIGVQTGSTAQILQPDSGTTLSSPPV
Structure (SMILES),AC50 [1] [µM],AC50 [2] [µM],AC50 [3] [µM],AC50 (Acetylcholinesterase) [µM],AC50 (Endothelin-1 receptor) [µM],AC50 [4] [µM],AC50 [5] [µM],AC50 [6] [µM],AC50 (Histamine H1 receptor) [µM],AC50 (Glucocorticoid receptor) [µM]
CC(=O)O[C@]1(C(C)=O)CC[C@H]2[C@@H]3C=C(Cl)C4=CC(=O)CC[C@]4(C)[C@H]3CC[C@@]21C [CHLORMADINONE ACETATE],> 30,> 30,> 30,> 30,,,,,,
CC1(C)S[C@@H]2[C@H](NC(=O)[C@H](N)c3ccccc3)C(=O)N2[C@H]1C(=O)OCOC(=O)[C@@H]1N2C(=O)C[C@H]2S(=O)(=O)C1(C)C [SULTAMICILLIN],,,,,> 30,> 30,> 30,> 30,> 30,> 30
CCN(CCCc1ccccc1)CCCc1ccccc1 [ALVERINE],> 30,> 30,1.96,> 30,,,,,,
CCOC(=O)C1=C[C@]2(CC)CCCN3CCc4c(n1c1ccccc41)[C@@H]32 [VINPOCETINE],,,,,> 30,> 30,> 30,,> 30,> 30
CC12CC3CC(C)(C1)CC(N)(C3)C2 [MEMANTINE],,,,,> 30,> 30,> 10,> 10,> 10,> 30
C[C@]12CCC(=O)C(O)=C1CC[C@@H]1[C@@H]2CC[C@]2(C)C(=O)CC[C@@H]12 [FORMESTANE],,,,,> 30,> 30,> 30,> 30,> 30,> 30
CCC(C)C(CC)C(N)=O (stereo not given) [VALNOCTAMIDE],,,,,> 30,> 30,> 30,,> 30,> 30
CCOC(=O)C1=C(C)NC(C)=C(C(=O)OC)C1c1cccc([N+](=O)[O-])c1 (stereo not given) [NITRENDIPINE],,,,,> 30,> 30,> 10,> 10,,
C/N=C(\NC)NCc1ccccc1 [BETHANIDINE],,,,,> 30,> 30,> 30,> 30,> 30,> 30
C#C[C@]1(OC(C)=O)CC[C@H]2[C@@H]3CCC4=C/C(=N/O)CC[C@@H]4[C@H]3CC[C@@]21CC [NORGESTIMATE],,,,,> 30,> 30,> 30,> 30,> 30,0.041
OC1(c2ccc(Cl)cc2)c2ccccc2C2=NCCN21 (stereo not given) [MAZINDOL],,,,,> 30,> 30,> 30,> 30,7.5,> 30
Oc1ccc2c(c1)CC[C@H](c1ccccc1)[C@@H]2c1ccc(OCCN2CCCC2)cc1 [LASOFOXIFENE],,,,,> 30,12,> 30,9.49,20,9.3
Clc1ccc2c(N3CCN(CCCN4CCN(c5ccnc6cc(Cl)ccc56)CC4)CC3)ccnc2c1 [PIPERAQUINE],,,,,> 30,> 30,> 30,> 30,> 30,> 30
CCC(C)C1(CC)C(=O)NC(=O)NC1=O (stereo not given) [BUTABARBITAL],,,,,> 30,> 30,,> 30,> 30,> 30
CC(C(=O)O)c1ccc(CC2CCCC2=O)cc1 (stereo not given) [LOXOPROFEN],,,,,> 30,> 30,> 30,> 30,,
CC(=O)N[C@@H](CS)C(=O)O [ACETYLCYSTEINE],,,,,> 30,> 30,> 30,> 30,> 30,> 30
COc1cc(N)c(Cl)cc1C(=O)NC1CCN(Cc2ccccc2)CC1 [CLEBOPRIDE],,,,,> 30,14,0.13,0.98,> 30,> 30
C[C@]12CC[C@@H]3c4ccc(O)cc4C[C@@H](CCCCCCCCC[S+]([O-])CCCC(F)(F)C(F)(F)F)[C@H]3[C@@H]1CC[C@@H]2O (stereo not given in full) [FULVESTRANT],,,,,> 30,> 30,> 30,> 30,> 30,1.1
Cc1cccc(N2CC(CO)OC2=O)c1 (stereo not given) [TOLOXATONE],,,,,> 30,> 30,> 30,> 30,> 30,> 30
COCC1=C(C(=O)O)N2C(=O)[C@@H](NC(=O)/C(=N\OC)c3csc(N)n3)[C@H]2SC1 [CEFPODOXIME],,,,,> 30,> 30,> 30,> 30,> 30,> 30
CN(C)CCCNc1c2ccccc2nc2cccc([N+](=O)[O-])c12 [NITRACRINE],,,,,> 30,6.7,18,0.76,14,> 30
Cc1cnc(C(=O)NCCc2ccc(S(=O)(=O)NC(=O)NC3CCCCC3)cc2)cn1 [GLIPIZIDE],,> 30,> 30,,> 30,,,,,> 30
C=CCNc1nc(NCC=C)nc(N2CCN(C(c3ccc(F)cc3)c3ccc(F)cc3)CC2)n1 [ALMITRINE],,,,,> 30,,> 30,> 30,> 30,> 30
CC(N)C(O)c1ccccc1 (stereo not given) [PHENYLPROPANOLAMINE],,,,,> 30,> 30,> 10,> 10,> 10,> 30
